We go through 17 compounds from patent US10221138B2, “Biaryl derivatives as GPR120 agonists” (LG CHEM, LTD., priority 2013, dated 2019).

SMILES strings stand for the structures.

The target of this assay is T1, hGPR120 (Homo sapiens, UniProt Q5NUL3).
T1 construct: expressed in transfected cells; host or cells: CHO-K1
T1 sequence (Q5NUL3 1-361): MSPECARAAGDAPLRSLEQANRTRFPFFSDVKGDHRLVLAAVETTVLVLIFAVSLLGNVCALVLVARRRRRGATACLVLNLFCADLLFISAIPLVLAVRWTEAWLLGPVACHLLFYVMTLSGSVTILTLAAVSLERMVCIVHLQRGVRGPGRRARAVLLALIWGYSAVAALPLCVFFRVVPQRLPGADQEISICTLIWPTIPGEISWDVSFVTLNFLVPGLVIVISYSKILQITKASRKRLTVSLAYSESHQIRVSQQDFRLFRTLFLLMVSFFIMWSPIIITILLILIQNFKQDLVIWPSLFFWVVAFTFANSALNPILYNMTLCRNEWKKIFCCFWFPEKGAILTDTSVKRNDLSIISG
Briefly: Measurement of activity of GPR120 agonist (cell-based calcium fluorescence assay). The conditions noted are these: CHO-K1 cells expressing Ga16 and hGPR120, Calcium 5 dye fluorescence; activity class; read-out: EC50. The method, boiled down: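 CHO-K1 cells co-expressing Gα16 and hGPR120, plated 18 h, loaded with Calcium 5 dye for 1 h at 37 °C, then given serially diluted agonists (final 0.5% DMSO). Fluorescence increase expressed as relative % of the 1% DMSO-only signal.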
Broadly, the EC50 is the concentration needed to bring the measured effect to its halfway point. As for `CC(C)Nc1ccccc1-c1cc(F)c(SCCCC(=O)O)c(F)c1` [Example 165, 4-(3,5-difluoro-2′-isopropylamino-biphenyl-4-ylsulfanyl)-butyric acid], the concentration giving a half-maximal response (EC50) is less than 200 nM.

For the compound `CCCNc1ccccc1-c1cc(F)c(SCCCC(=O)O)c(F)c1` [Example 166, 4-(3,5-difluoro-2′-propylamino-biphenyl-4-ylsulfanyl)-butyric acid], the concentration giving a half-maximal response (EC50) is less than 200 nM. Then `CCCSc1ncccc1-c1cc(F)c(SCCCC(=O)O)c(F)c1` [Example 168, 4-[2,6-difluoro-4-(2-propylsulfanyl-pyridin-3yl)-phenylsulfanyl]-butyric acid], with less than 200 nM. As for `O=C(O)CCCSc1ccc(-c2cccc(SC3CCC3)n2)cc1F` [Example 169, 4-[4-(6-cyclobutylsulfanyl-pyridin-2-yl)-2-fluoro-phenylsulfanyl]-butyric acid], the 50% effective concentration (EC50) is less than 200 nM.

For the compound `O=C(O)CCCSc1ccc(-c2cccnc2NC2CCCC2)cc1F` [Example 170, 4-[4-(2-cyclopentylamino-pyridin-3-yl)-2-fluoro-phenylsulfanyl]-butyric acid], the concentration giving a half-maximal response (EC50) was less than 200 nM. For `CC(C)Oc1ncccc1-c1ccc(SCCCC(=O)O)c(F)c1` [Example 171, 4-[2-fluoro-4-(2-isopropoxy-pyridin-3-yl)-phenylsulfanyl]-butyric acid], the EC50 is less than 200 nM. As to `O=C(O)CCCSc1ccc(-c2cccnc2OC2CCC2)cc1F` [Example 172, 4-[4-(2-cyclobutoxy-pyridin-3-yl)-2-fluoro-phenylsulfanyl]-butyric acid], the concentration giving a half-maximal response (EC50) was less than 200 nM. Regarding `O=C(O)CCCSc1ccc(-c2cccnc2N2CCCC2)cc1F` [Example 173, 4-[2-fluoro-4-(2-pyrrolidin-1-yl-pyridin-3-yl)-phenylsulfanyl]-butyric acid], the half-maximal effective concentration (EC50) was 200 to 2000 nM.

Regarding `CC(C)Nc1ncccc1-c1ccc(SCCCC(=O)O)c(F)c1` [Example 174, 4-[2-fluoro-4-(2-isopropylamino-pyridin-3-yl)-phenylsulfanyl]-bytyric acid], the EC50 is 200 to 2000 nM.

For `O=C(O)CCCSc1ccc(-c2cc(F)ccc2NC2CCCC2)cc1F` [Example 175, 4-(2′-cyclopentylamino-3,5′-difluoro-biphenyl-4-ylsulfanyl)-butyric acid], the concentration giving a half-maximal response (EC50) is less than 200 nM. For the compound `O=C(O)CCCSc1ccc(-c2cc(F)ccc2NC2CCCC2)cc1` [Example 176, 4-(2′-cyclopentylamino-5′-fluoro-biphenyl-4-ylsulfanyl)-butyric acid], the EC50 is less than 200 nM. On to `Cc1ccc(OC2CCCC2)c(-c2ccc(SCCCC(=O)O)cc2)c1` [Example 177, 4-(2′-cyclopentyloxy-5′-methyl-biphenyl-4-ylsulfanyl)-butyric acid], for which the 50% effective concentration (EC50) fell in the range of 200 to 2000 nM. For the compound `O=C(O)CCCSc1ccc(-c2cc(F)ccc2OC2CCCC2)cc1` [Example 179, 4-(2′-cyclopentyloxy-5′-fluoro-biphenyl-4-ylsulfanyl)-butyric acid], the concentration giving a half-maximal response (EC50) is 200 to 2000 nM. For `O=C(O)CCCSc1ccc(-c2cc(F)ccc2OC2CCCC2)cc1F` [Example 180, 4-(2′-cyclopentyloxy-3,5′-difluoro-biphenyl-4-ylsulfanyl)-butyric acid], the EC50 was 200 to 2000 nM.

As to `Cc1cnc(OC2CCCC2)c(-c2ccc(SCCCC(=O)O)cc2)c1` [Example 181, 4-[4-(2-cyclopentyloxy-5-methyl-pyridin-3-yl)-phenylsulfanyl]-butyric acid], the EC50 lay in the range of 200 to 2000 nM. Regarding `COc1ccc(-c2ccc(SCCCC(=O)O)c(F)c2)c(OC2CCCC2)c1` [Example 183, 4-(2′-cyclopentyloxy-3-fluoro-4′-methoxy-biphenyl-4-ylsulfanyl)-butyric acid], the EC50 lay in the range of 200 to 2000 nM.

For `COc1ccc(-c2cc(F)c(SCCCC(=O)O)c(F)c2)c(OC2CCCC2)c1` [Example 184, 4-(2′-cyclopentyloxy-3,5-difluoro-4′-methoxy-biphenyl-4-ylsulfanyl)-butyric acid], the EC50 was in the range of 200 to 2000 nM.
